In the supplement of paper PMC10307832:

Assays:
Assay in all cases: relative viability (nuclei count vs DMSO), 5 days (fraction); higher = more cells survive
Alisertib = compound: COc1cc(Nc2ncc3c(n2)-c2ccc(Cl)cc2C(c2c(F)cccc2OC)=NC3)ccc1C(=O)O [Alisertib]
Procedure, shortened: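 After an overnight hold at 37 °C, lung cancer cell lines in 1536-well plates were pinned with five library-drug doses (not always all listed), each √10 from the next, on vehicle-anchored plates. The cells stayed 5 days without fresh medium, then a one-step fix, permeabilisation and Hoechst stain preceded 4× imaging and MetaXpress nuclear counts. A plate passed only with control CV under 25% and at least one doubling. Viability is the median, over plates, of treated-well nuclei relative to vehicle-well nuclei.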

Alisertib + Phenformin = compound: COc1cc(Nc2ncc3c(n2)-c2ccc(Cl)cc2C(c2c(F)cccc2OC)=NC3)ccc1C(=O)O [Alisertib] + N=C(N)NC(=N)NCCc1ccccc1 [Phenformin] (partner 250 µM)
Procedure, shortened: (§1)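 Lung cancer cell lines were seeded in 1536-well plates and dosed by pin tool the next day, with either a single drug or a fixed anchor-drug dose combined with five library-drug doses (not always all listed) spaced in √10 steps. Five days later, one step fixed the cells and stained their nuclei (final 0.05% Triton X-100, 1% formaldehyde, 1 ug/ml Hoechst), and nuclei were counted on 4× images. Relative viability is the nuclei count in treated wells divided by the count in vehicle wells, and each value is the median of duplicate plates.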

Alisertib + OSI-027 = compound: COc1cc(Nc2ncc3c(n2)-c2ccc(Cl)cc2C(c2c(F)cccc2OC)=NC3)ccc1C(=O)O [Alisertib] + COc1cccc2cc(-c3nc([C@H]4CC[C@H](C(=O)O)CC4)n4ncnc(N)c34)[nH]c12 [OSI-027] (partner 0.5 µM)
Procedure, shortened: as §1

Alisertib + Trametinib = compound: COc1cc(Nc2ncc3c(n2)-c2ccc(Cl)cc2C(c2c(F)cccc2OC)=NC3)ccc1C(=O)O [Alisertib] + CC(=O)Nc1cccc(-n2c(=O)n(C3CC3)c(=O)c3c(Nc4ccc(I)cc4F)n(C)c(=O)c(C)c32)c1 [Trametinib] (partner 0.02 µM)
Procedure, shortened: as §1

Cell Line | relative viability (Alisertib; 0.005 µM) | relative viability (Alisertib; 0.01581 µM) | relative viability (Alisertib; 0.05 µM) | relative viability (Alisertib; 0.1581 µM) | relative viability (Alisertib; 0.5 µM) | relative viability (Alisertib + Phenformin; first compound 0.005 µM) | relative viability (Alisertib + Phenformin; first compound 0.01581 µM) | relative viability (Alisertib + Phenformin; first compound 0.05 µM) | relative viability (Alisertib + Phenformin; first compound 0.1581 µM) | relative viability (Alisertib + Phenformin; first compound 0.5 µM) | relative viability (Alisertib + OSI-027; first compound 0.005 µM) | relative viability (Alisertib + OSI-027; first compound 0.01581 µM) | relative viability (Alisertib + OSI-027; first compound 0.05 µM) | relative viability (Alisertib + OSI-027; first compound 0.1581 µM) | relative viability (Alisertib + OSI-027; first compound 0.5 µM) | relative viability (Alisertib + Trametinib; first compound 0.005 µM) | relative viability (Alisertib + Trametinib; first compound 0.01581 µM) | relative viability (Alisertib + Trametinib; first compound 0.05 µM) | relative viability (Alisertib + Trametinib; first compound 0.1581 µM) | relative viability (Alisertib + Trametinib; first compound 0.5 µM)
HCC-78 | 0.858 | 0.642 | 0.303 | 0.284 | 0.328 | 0.61 | 0.541 | 0.321 | 0.281 | 0.26 | 0.536 | 0.354 | 0.244 | 0.244 | 0.241 | 0.67 | 0.646 | 0.263 | 0.236 | 0.259
HCC-366 | 1 | 0.813 | 0.0889 | 0.0461 | 0.054 | 0.552 | 0.202 | 0.138 | 0.0286 | 0.0335 | 0.973 | 0.696 | 0.0686 | 0.04 | 0.0334 | 0.306 | 0.23 | 0.0254 | 0.0345 | 0.0398
HCC-827 | 0.947 | 1.01 | 0.812 | 0.363 | 0.324 | 0.353 | 0.431 | 0.39 | 0.198 | 0.178 | 0.722 | 0.755 | 0.685 | 0.257 | 0.18 | 0.547 | 0.514 | 0.293 | 0.26 | 0.238
HOP-62 | 0.918 | 0.867 | 0.505 | 0.237 | 0.17 | 0.612 | 0.553 | 0.345 | 0.147 | 0.143 | 0.683 | 0.727 | 0.537 | 0.243 | 0.176 | 0.398 | 0.337 | 0.274 | 0.223 | 0.174
IA-LM | 0.795 | 0.823 | 0.569 | 0.357 | 0.0972 | – | – | – | – | – | – | – | – | – | – | – | – | – | – | –
LC-2-ad | 0.736 | 0.594 | 0.347 | 0.245 | 0.225 | 0.474 | 0.426 | 0.401 | 0.295 | 0.304 | 0.587 | 0.368 | 0.441 | 0.307 | 0.268 | 0.826 | 0.698 | 0.517 | 0.353 | 0.191
LCLC-97TM1 | 0.931 | 0.791 | 0.496 | 0.137 | 0.121 | 0.451 | 0.386 | 0.333 | 0.174 | 0.153 | 0.424 | 0.349 | 0.264 | 0.129 | 0.0853 | 0.202 | 0.201 | 0.124 | 0.126 | 0.0987
LCLC-103H | 0.903 | 1.04 | 0.875 | 0.392 | 0.293 | 0.305 | 0.304 | 0.316 | 0.175 | 0.187 | 0.427 | 0.438 | 0.473 | 0.201 | 0.204 | 0.669 | 0.69 | 0.345 | 0.359 | 0.437
LK-2 | 0.962 | 0.853 | 0.497 | 0.297 | 0.202 | 0.38 | 0.385 | 0.179 | 0.149 | 0.163 | 0.224 | 0.232 | 0.185 | 0.166 | 0.17 | 0.746 | 0.677 | 0.522 | 0.25 | 0.183
